Holding throughout (type): cell-based
Test [1] concerns RT-112 (FGFR3-Tacc3 fusion) cells. In words: cell proliferation assay (CellTiterGlo), RT-112 cells. As to conditions: Homo sapiens, RT-112, RT112 cells, 72 hours. The procedure, abridged: (§1)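 Luminescent ATP read-out (CellTiterGlo) after exposure to compound at varying concentrations or DMSO vehicle. IC50 derived with vehicle-treated wells set as viable cells.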
Test [2] concerns DMS-114 (FGFR1 overexpression) cells. In words: cell proliferation assay (CellTiterGlo), DMS-114 cells. Particulars: Homo sapiens, DMS-114, 72 h. An outline of the steps:
as §1

Test [3] relates to UM-UC-14 (FGFR3-S249C) cells. The test can be described thus: cell proliferation assay (CellTiterGlo), UM-UC-14 cells. As to conditions: UMUC14, 72 h. The procedure, abridged: as §1
The subject of test [4] is SNU-16 (FGFR2-amplification) cells. The test can be described thus: cell proliferation assay (CellTiterGlo), SNU-16 cells. As to conditions: Homo sapiens, 72 hours. The text has this: In some embodiments, the biological assay assess the ability of the compounds to inhibit cell proliferation.
In some embodiments, cells (e.g., SNU-16 (FGFR2-amplification) cells) may be suspended and dispensed in plates. In some embodiments, cells (e.g., UM-UC-14 (FGFR3-S249C) cells) may be suspended and dispensed in plates. In some embodiments, cells (e.g., DMS-114 (FGFR1 overexpression) cells) may by suspended and dispensed in plates. In some embodiments, cells (e.g., RT-112 (FGFR3-Tacc3 fusion) cells) may be suspended and dispensed in plates. In some embodiments, to determine the effect of the compounds of the present disclosure on cell proliferation, cells (e.g., SNU-16, UM-UC-14, DMS-114 and […] cells) may be incubated in the presence of vehicle control (e.g., DMSO) or a compound of the present disclosure at varying concentrations and the inhibition of cell growth may be determined by luminescent quantification (e.g., of intracellular ATP content using CellTiterGlo), according to the manufacturers protocol. In some embodiments, to determine the IC50 values, the vehicle-treated cells were normalized as viable cells and the growth was analyzed using a software (e.g., the CDD Vault software (Collaborative Drug Discovery, Burlingame, CA)).

Structures are written as SMILES.

In the case of `Cc1nc2ccc(Oc3ccc4ncc(-c5cnn(CC(=O)N6CCC(F)C6)c5)nc4c3Cl)cc2[nH]1` (stereo not drawn) [Compound 290], the IC50 in test [1] was 20 to 100 nM; in test [2], at least 400 nM; in test [3], 20 to 100 nM; in test [4] it was 20 to 100 nM.
In the case of `Cc1nc2ccc(Oc3ccc4ncc(-c5cnn(C6CCC(F)(F)C6)c5)nc4c3Cl)cc2[nH]1` (stereo not drawn) [Compound 211], the IC50 in test [1] was 100 to 400 nM; in test [2], at least 400 nM; in test [3], 100 to 400 nM; in test [4] it was 100 to 400 nM.
As to `Cc1nc2ccc(Oc3ccc4ncc(-c5cnn(C6CCC(F)(F)CC6)c5)nc4c3Cl)cc2o1` [Compound 186], the IC50 in test [1], in test [2], in test [3] and in test [4] was at least 400 nM in each case.
On to `Cc1nc2ccc(Oc3ccc4ncc(-c5cn(CC6CC(F)(F)C6)nc5C)nc4c3Cl)cc2[nH]1` [Compound 276], for which the IC50 in test [1] is 20 to 100 nM; in test [2] it was at least 400 nM; in test [3], 100 to 400 nM; in test [4], 100 to 400 nM.
For `Cc1nc2ccc(Oc3ccc4ncc(-c5cnn([C@H]6C[C@@H](N7C[C@@H]8C[C@H]7CO8)C6)c5)nc4c3Cl)cc2[nH]1` [Compound 204], the IC50 is 20 to 100 nM in test [1], at least 400 nM in test [2], 20 to 100 nM in test [3] and 20 to 100 nM in test [4].
Turning to `Cc1nc2ccc(Oc3ccc4ncc(-c5cnn(C6CCNC(C)(C)C6)c5)nc4c3Cl)cc2[nH]1` (stereo not drawn) [Compound 249], the IC50 was 20 to 100 nM in test [1], at least 400 nM in test [2], 20 to 100 nM in test [3] and 20 to 100 nM in test [4].
For `Cc1nc2ccc(Oc3ccc4ncc(-c5cnn(C6CN(CC(=O)N7CC(O)C7)C6)c5)nc4c3Cl)cc2[nH]1` [Compound 235], the IC50 in test [1] was 20 to 100 nM; in test [2], at least 400 nM; in test [3] it was 20 to 100 nM; in test [4], 20 to 100 nM.
Take `Cc1nc2ccc(Oc3ccc4ncc(-c5cnn(CC6(F)CC6)c5)nc4c3Cl)cc2[nH]1` [Compound 253]: the IC50 in test [1] is 100 to 400 nM; in test [2] it was at least 400 nM; in test [3] it was 100 to 400 nM; in test [4], 100 to 400 nM.
Take `Cc1nc2ccc(Oc3ccc4ncc(-c5cnn(Cc6nnc(C)o6)c5)nc4c3Cl)cc2[nH]1` [Compound 111]: the IC50 is 20 to 100 nM in test [1], at least 400 nM in test [2], 20 to 100 nM in test [3] and 20 to 100 nM in test [4].
For the molecule `Cc1nc2ccc(Oc3ccc4ncc(-c5cnn(CC6(N)CC6)c5)nc4c3Cl)cc2[nH]1` [Compound 93], the IC50 in test [1] is 100 to 400 nM; in test [2], at least 400 nM; in test [3], 20 to 100 nM; in test [4], 100 to 400 nM.
As to `CCc1nc2cc(Oc3ccc4ncc(-c5cnn(CC6CC(F)(F)C6)c5)nc4c3Cl)ccc2[nH]1` [Compound 219], the IC50 in test [1] is 100 to 400 nM; in test [2], at least 400 nM; in test [3], 100 to 400 nM; in test [4], 100 to 400 nM.
With `Cc1nc2ccc(Oc3ccc4ncc(-c5cnn(CC(C)(C)C(N)=O)c5)nc4c3Cl)cc2[nH]1` [Compound 274], the IC50 in test [1] was 20 to 100 nM; in test [2] it was at least 400 nM; in test [3], 20 to 100 nM; in test [4], 20 to 100 nM.
On to `Cc1nc2ccc(Oc3ccc4ncc(-c5cnn(C6CCC(F)(F)CC6)c5)nc4c3Cl)c(F)c2[nH]1` [Compound 153], for which the IC50 in test [1] was in the range of 20 to 100 nM; in test [2], 100 to 400 nM; in test [3], 20 to 100 nM; in test [4], 20 to 100 nM.
On to `Cc1nc2ccc(Oc3ccc4ncc(-c5cnn(C(C)(C)C(=O)N6CCOCC6)c5)nc4c3Cl)cc2[nH]1` [Compound 209], for which the IC50 is 20 to 100 nM in test [1], at least 400 nM in test [2], 100 to 400 nM in test [3] and 100 to 400 nM in test [4].
Turning to `Cc1nc2ccc(Oc3ccc4ncc(-c5cnn(CCN6CCC6)c5)nc4c3Cl)cc2[nH]1` [Compound 239], the IC50 in test [1], in test [2], in test [3] and in test [4] was at least 400 nM each time.
Take `Cc1nc2cc(Oc3ccc4ncc(-c5cnn(CC6CC(F)(F)C6)c5)nc4c3Cl)cc(F)c2[nH]1` [Compound 266]: the IC50 in test [1] is 100 to 400 nM; in test [2], at least 400 nM; in test [3], 100 to 400 nM; in test [4], 100 to 400 nM.
Regarding `Cc1nc2ccc(Oc3ccc4ncc(-c5cnn(C6CC7(CNC7)C6)c5)nc4c3Cl)cc2[nH]1` [Compound 256], the IC50 was 100 to 400 nM in test [1], at least 400 nM in test [2], 100 to 400 nM in test [3] and 100 to 400 nM in test [4].
For `Cc1nc2ccc(Oc3ccc4ncc(-c5cnn(CC6CC(O)C6)c5)nc4c3Cl)cc2[nH]1` (stereo not drawn) [Compound 325], the IC50 was under 20 nM in test [1], at least 400 nM in test [2], 20 to 100 nM in test [3] and under 20 nM in test [4].
Consider `Cc1nc2ccc(Oc3ccc4ncc(-c5cnn(CC6CC(F)(F)C6)c5)nc4c3-n3ccnc3)cc2[nH]1` [Compound 69], for which the IC50 in test [1] was 100 to 400 nM; in test [2] it was at least 400 nM; in test [3], 100 to 400 nM; in test [4], 100 to 400 nM.
With `Cc1nc2ccc(Oc3ccc4ncc(-c5cnn(CC6CC(N(C)C)C6)c5)nc4c3Cl)cc2[nH]1` (stereo not drawn) [Compound 297], the IC50 is 20 to 100 nM in test [1], at least 400 nM in test [2], 20 to 100 nM in test [3] and 20 to 100 nM in test [4].
As for `Cc1nc2ccc(Oc3ccc4ncc(-c5cnn(CC6CC7CC6CN7C(N)=O)c5)nc4c3Cl)cc2[nH]1` (stereo not drawn) [Compound 328], the concentration for half-maximal inhibition (IC50) in test [1] is 20 to 100 nM; in test [2], at least 400 nM; in test [3], 20 to 100 nM; in test [4], 20 to 100 nM.
For the molecule `Cc1nc2ccc(Oc3ccc4ncc(-c5cnn(CCN6CC(O)C6)c5)nc4c3Cl)cc2[nH]1` [Compound 198], the IC50 was 20 to 100 nM in test [1], at least 400 nM in test [2], 100 to 400 nM in test [3] and 100 to 400 nM in test [4].
As for `Cc1nc2ccc(Oc3ccc4ncc(-c5cnn(CC6CC7CC6CO7)c5)nc4c3Cl)cc2[nH]1` (stereo not drawn) [Compound 241], the half-inhibitory concentration (IC50) in test [1] was under 20 nM; in test [2] it was 100 to 400 nM; in test [3], 20 to 100 nM; in test [4], 20 to 100 nM.
As for `Cc1nc2ccc(Oc3ccc4ncc(-c5cnn(CCN6CCC(O)C6)c5)nc4c3Cl)cc2[nH]1` (stereo not drawn) [Compound 267], the IC50 in test [1] is 20 to 100 nM; in test [2], at least 400 nM; in test [3], 20 to 100 nM; in test [4], 20 to 100 nM.
As to `Cc1nc2ccc(Oc3ccc4ncc(-c5cnn(C6CCN(C(=O)N7CC(O)C7)CC6)c5)nc4c3Cl)cc2[nH]1` [Compound 189], the half-maximal inhibitory concentration (IC50) was 20 to 100 nM in test [1], at least 400 nM in test [2], 20 to 100 nM in test [3] and 20 to 100 nM in test [4].
`Cc1nc2ccc(Oc3ccc4ncc(-c5cnn(CC6COCCN6C)c5)nc4c3Cl)cc2[nH]1` (stereo not drawn) [Compound 245]: the IC50 in test [1] is 20 to 100 nM; in test [2], at least 400 nM; in test [3], 20 to 100 nM; in test [4] it was 20 to 100 nM.
`Cc1nc2ccc(Oc3ccc4ncc(-c5cnn(CC67COC(C6)C7)c5)nc4c3Cl)cc2[nH]1` [Compound 343]: the IC50 was under 20 nM in test [1], at least 400 nM in test [2], 20 to 100 nM in test [3] and under 20 nM in test [4].
Consider `Cc1nc2ccc(Oc3ccc4ncc(-c5cnn(C6(CCO)CCNCC6)c5)nc4c3Cl)cc2[nH]1` [Compound 318], for which the IC50 in test [1], in test [2], in test [3] and in test [4] was at least 400 nM each time.
For `Cc1nc2ccc(Oc3ccc4ncc(-c5cnn(C6CC7CC6CN7)c5)nc4c3Cl)cc2[nH]1` (stereo not drawn) [Compound 353], the IC50 is 20 to 100 nM in test [1], at least 400 nM in test [2], 20 to 100 nM in test [3] and 20 to 100 nM in test [4].
On to `Cc1nc2ccc(Oc3ccc4ncc(-c5cnn([C@H]6CCNC[C@@H]6F)c5)nc4c3Cl)cc2[nH]1` [Compound 369], for which the IC50 in test [1] is 20 to 100 nM; in test [2], at least 400 nM; in test [3], 20 to 100 nM; in test [4], 20 to 100 nM.
With `Cc1nc2ccc(Oc3ccc4ncc(-c5cnn(CC6CN(C)CCO6)c5)nc4c3Cl)cc2[nH]1` (stereo not drawn) [Compound 271], the IC50 in test [1] is under 20 nM; in test [2], at least 400 nM; in test [3] it was 20 to 100 nM; in test [4], 20 to 100 nM.
For `Cc1nc2ccc(Oc3ccc4ncc(-c5cnn([C@@H]6C[C@H]7CC[C@@H](C6)N7)c5)nc4c3Cl)cc2[nH]1` [Compound 361], the IC50 in test [1] was 20 to 100 nM; in test [2], 100 to 400 nM; in test [3] it was 20 to 100 nM; in test [4], 100 to 400 nM.
On to `Cc1nc2ccc(Oc3ccc4ncc(-c5cnn([C@@H](C)CO)c5)nc4c3Cl)c(F)c2[nH]1` [Compound 106], for which the IC50 is under 20 nM in test [1], 100 to 400 nM in test [2], under 20 nM in test [3] and under 20 nM in test [4].

(Values after patent US20240368181A1, “QUINOXALINE DERIVATIVES AND USES THEREOF” (Black Diamond Therapeutics, Inc., priority 2021, published 2024).)
